Test [1] deals with T1, human D2 receptor (short isoform) (Homo sapiens, UniProt P14416).
T1 construct: membrane homogenate, 3H-spiperone displacement
Briefly: D2 receptor binding, displacement of 3H-spiperone (GH4C1 cells), for D2/D4 selectivity. The settings on record: for D2/D4: D4 selectivity, ratio D2/D4. As to the method:
(§1) The potency of the test compound to reduce ^3 H-spiperone binding directly correlated to its binding affinity for the receptor.
GH4 C1 (rat pituitary) cells stably transfected with the human D2 receptor (short isoform) were grown in CO2 independent media in roller bottles (1500 cm^2) for 10 days. 100 μM ZnSO4 was added to the cells (the D2 promoter being zinc inducible). After 16 hours, fresh media was added to allow the cells to recover for 24 hours. The cells were harvested using versene and then centrifuged in a Sorval centrifuge for 10 minutes, at 5000 rpm (GS3 rotor). Pellets were quickly frozen in liquid nitrogen and stored at -80° C. until used in the binding assays. When used in the assay, cells were thawed on ice for 20 minutes. […] 10 mL of incubation buffer was added to the pellets which were then vortexed, resuspended and homogenized with a Kinematica CH-6010 Kriens-LU homogenizer for 15 seconds at setting 7. The receptor protein concentration was determined using the Pierce BCA assay.
(§2) Total Spiperone Binding Assay
(§3) The incubation was started by the addition of 500 μl (50 μg protein) membrane homogenate to a solution of 900 μl incubation buffer and 100 μl (0.25 nM final conc.) ^3 H-spiperone (90 Ci/mmol Amersham diluted in borosilicate glass vial) in 12×75 mm polypropylene tubes. The tubes were vortexed and incubated at room temperature for 90 minutes. The binding reaction was stopped by filtering using a Brandell Cell Harvester. The samples were filtered under vacuum over glass fibre filters (Whatman GF/B) presoaked for 2 hours in 0.3% polyethyleneimine (PEI) in 50 mM Tris buffer (pH7.4). The filters were then washed 3 times with 5 mL ice cold 50 mM Tris buffer (pH7.4). Individual filter disks were put in scintillation vials (Biovials, Bechman). Ready Protein Plus liquid scintillant (5 mL, Beckman) was added and the vials counted by liquid scintillation spectrophotometry (Beckman LSC 6500) after equilibrating for three hours at room temperature to determine total binding (BT).
Non-Specific Binding Assay for D2
This assay employed the same procedures as the non-specific binding assay for D4 with the exception that 2 μM (final conc.) of (-) sulpiride (Research Chemicals Inc.) was used in place of dopamine.
(§4) Displacement Binding Assay
(§5) The incubation was started by the addition to 12×75 mm polypropylene tubes 500 μl (50 μg protein) membrane homogenate to a solution of 400 μl incubation buffer, 100 μl (0.25 final conc.) ^3 H-spiperone (90Ci/mmol, Amersham, diluted in borosilicate glass vial to) and […] of test compound that was prepared from 1 mM stock dissolved in DMSO and stored at -20° C. in polypropylene cryogenic storage vials until dilution in incubation buffer in borosilicate glass vials. The tubes were vortexed and incubated at room temperature for 90 minutes at which time the binding reaction was stopped by filtering. The filters were washed and counted using the same procedure as in the total binding assay described above to give the displacement binding value (BD).
Specific binding in the absence of test compound (BO) was the difference of total binding (BT) minus non-specific binding (NSB) and similarly specific binding (in the presence of test compound) (B) was the difference of displacement binding (BD) minus non-specific binding (NSB). IC50 was determined from an inhibition response curve, logit-log plot of %B/BO vs concentration of test compound.
(§6) Ki was calculated by the Cheng and Prustoff transformation: […]
(§7) where [L] is the concentration of ^3 H-spiperone used in the assay and KD is the to dissociation constant of ^3 H-spiperone determined independently under the same binding conditions.

In test [2] the target is T2, human D4 receptor (D4.2 sub-type) (Homo sapiens, UniProt P21917, DEL265-296).
T2 construct: expressed in transfected cells; host or cells: HEK 298 (human embryonic kidney) cells, [sic]; homogenate of stably transfected cells
T2 sequence (P21917 with tags, fused parts or gaps DEL265-296): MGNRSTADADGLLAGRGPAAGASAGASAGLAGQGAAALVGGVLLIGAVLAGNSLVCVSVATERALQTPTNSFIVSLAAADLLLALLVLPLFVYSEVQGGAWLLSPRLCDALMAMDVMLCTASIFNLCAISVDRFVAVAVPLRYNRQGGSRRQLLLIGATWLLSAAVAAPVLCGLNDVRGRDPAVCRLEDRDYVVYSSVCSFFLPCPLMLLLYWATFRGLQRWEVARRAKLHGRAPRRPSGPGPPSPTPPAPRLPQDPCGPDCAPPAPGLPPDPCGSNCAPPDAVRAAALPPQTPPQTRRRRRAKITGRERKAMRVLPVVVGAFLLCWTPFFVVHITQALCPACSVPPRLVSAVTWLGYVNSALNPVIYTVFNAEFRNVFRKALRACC
Briefly: D4 receptor binding, displacement of 3H-spiperone. The settings on record: for Ki: human D4 receptor, 3H-spiperone 0.25 nM. How it is done: as §1
The cells were then centrifuged in a Sorval centrifuge for 10 minutes, 5000 rpm (GS3 rotor) and the pellets quickly frozen in liquid nitrogen and stored at -80° C. until used in binding assay. When used in the assay, cells were thawed on ice for 20 minutes and then 10 mL of incubation buffer (50 mM Tris, 1 mM EDTA, 4 mM MgCl2, 5 mM KCl, 1.5 mM CaCl2, 120 mM NaCl, pH7.4) was added. […] Concentration of receptor protein was determined using the Pierce BCA assay.
as §2
as §3, with “The” for “The incubation was started by the addition of 500 μl (50 μg protein) membrane homogenate to a solution of 900 μl incubation buffer and 100 μl (0.25 nM final conc.) ^3 H-spiperone (90 Ci/mmol Amersham diluted in borosilicate glass vial) in 12×75 mm polypropylene tubes. The”
Non-Specific Binding Assay for D4
The tubes were vortexed and incubated at room temperature for 90 minutes at which time the binding reaction was stopped by filtering. The filters were washed and counted using the same procedure as in the total binding assay described above to give the non-specific binding value (NSB).
as §4, §5
IC50 was determined from an inhibition response curve, logit-log plot of %B/BO vs concentration of test compound.
as §6, §7

The mark [3] stands for this setting: compared with corresponding 4-methyl piperazine compound.

As usually defined, the Ki is the dissociation constant of the complex between target and ligand, obtained from inhibition or displacement. A low value points to a stronger hold on the target.

The structures appear in SMILES notation.

T1 sequence (P14416 with tags, fused parts or gaps DEL242-270): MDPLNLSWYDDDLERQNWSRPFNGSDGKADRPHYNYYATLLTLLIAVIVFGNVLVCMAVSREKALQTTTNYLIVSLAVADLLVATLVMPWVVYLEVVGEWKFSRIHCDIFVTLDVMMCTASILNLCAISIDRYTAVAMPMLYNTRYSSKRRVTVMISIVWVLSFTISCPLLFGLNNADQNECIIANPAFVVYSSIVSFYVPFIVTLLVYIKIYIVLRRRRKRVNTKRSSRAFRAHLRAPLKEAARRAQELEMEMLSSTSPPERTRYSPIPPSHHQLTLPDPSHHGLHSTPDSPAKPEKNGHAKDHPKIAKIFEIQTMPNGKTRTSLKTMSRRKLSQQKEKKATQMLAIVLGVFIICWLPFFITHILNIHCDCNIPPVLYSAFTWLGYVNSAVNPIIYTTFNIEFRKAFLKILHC

Regarding `Clc1ccc2c(c1)C(N1CCN(Cc3ccc4c(c3)OCO4)CC1)=Nc1cc(Cl)c(Cl)cc1N2` [2,7,8-trichloro-11-(4-piperonyl-1-piperazinyl)-5H-dibenzo[b,e][1,4]diazepine], the D2/D4 in test [1] is reported as 15.7. In addition, the values for the D4 selectivity result in test [1] (compared with clozapine) and in test [1] (setting [3]) were “better D4 selectivity than clozapine” and “better D4selectivity than the corresponding 4-methyl piperazine compound”, respectively. The compound also showed a Ki in test [2] of 0.149 µM.

Take `Clc1ccc2c(c1)C(N1CCN(Cc3ccc4c(c3)OCO4)CC1)=Nc1ccccc1N2` [2-Chloro-11-(4-piperonyl)-1-piperazinyl-5H-dibenzo[b,e][1,4]diazepine]: the D2/D4 in test [1] came out at 7.3. Further, the inhibition constant (Ki) in test [2] stood at 0.076 µM.

`COc1ccc2c(c1)C(N1CCN(Cc3ccc4c(c3)OCO4)CC1)=Nc1ccccc1N2` [2-methoxy-11-(4-piperonyl-1-piperazinyl)-5H-dibenzo[b,e][1,4]diazepine]: the D2/D4 in test [1] worked out at 5.1. The D4 selectivity result in test [1] (setting [3]) is on record as “better D4selectivity than the corresponding 4-methyl piperazine compound”. Also, the D4 affinity entry in test [2] (compared with clozapine) was “better D4 affinity than clozapine”. Further, the “D4 affinity and selectivity” value in test [2] (setting [3]) was “better D4 affinity and selectivity than the corresponding 4-methyl piperazine compound”. In addition, the affinity in test [2] corresponds to a Ki of 0.015 µM.

Consider `O=[N+]([O-])c1ccc2c(c1)C=C(N1CCN(Cc3ccc4c(c3)OCO4)CC1)c1ccccc1S2` [2-nitro-10-(4-piperonyl-1-piperazinyl)dibenzo[b,f]thiepine], for which the D2/D4 in test [1] was 281. The D4 selectivity entry in test [1] (compared with clozapine) was “better D4 selectivity than clozapine”; in test [1] (setting [3]), “better D4selectivity than the corresponding 4-methyl piperazine compound”. Further, the D4 affinity entry in test [2] (compared with clozapine) is given as “better D4 affinity than clozapine”. Moreover, the “D4 affinity and selectivity” value in test [2] (compared with clozapine) is “better D4 affinity and selectivity than clozapine”. This compound also returned an inhibition constant Ki in test [2] of 0.0153 µM.

In the case of `FC(F)(F)c1ccc2c(c1)C(N1CCN(Cc3ccc4c(c3)OCO4)CC1)=Nc1ccccc1N2` [2-trifluoromethyl-11-(4-piperonyl-1-piperazinyl)-5H-dibenzo[b,e][1,4]diazepine], the D2/D4 in test [1] was found to be 1.9. The D4 selectivity result in test [1] (setting [3]) is “better D4selectivity than the corresponding 4-methyl piperazine compound”. Also, the Ki in test [2] turned out to be 0.0735 µM.

With `Clc1cccc2c1Nc1ccccc1N=C2N1CCN(Cc2ccc3c(c2)OCO3)CC1` [4-chloro-11-(4-piperonyl-1-piperazinyl)-5H-dibenzo[b,e][1,4]diazepine], in test [1], the D2/D4 came out at 10.6. Also, the D4 selectivity entry in test [1] (compared with clozapine) is given as “better D4 selectivity than clozapine”. In addition, in test [2], the Ki came out at 0.034 µM.

Regarding `Clc1cccc2c1Oc1ccccc1N=C2N1CCN(Cc2ccc3c(c2)OCO3)CC1` [4-chloro-11-(4-piperonyl-1-piperazinyl)dibenz[b,f][1,4]oxazepine], the D2/D4 in test [1] is given as 99.2. The D4 selectivity entry in test [1] (compared with clozapine) is reported as “better D4 selectivity than clozapine”. In test [2], this compound had a Ki of 0.057 µM.

For `N#Cc1cccc2c1Oc1ccccc1N=C2N1CCN(Cc2ccc3c(c2)OCO3)CC1` [4-cyano-11-(4-piperonyl-1-piperazinyl)dibenz[b,f][1,4]oxazepine], in test [1], the D2/D4 is on record as 82.1. In addition, the D4 selectivity result in test [1] (compared with clozapine) was “better D4 selectivity than clozapine”. The same compound had a Ki in test [2] of 0.119 µM.

In the case of `O=[N+]([O-])c1cccc2c1Oc1ccccc1N=C2N1CCN(Cc2ccc3c(c2)OCO3)CC1` [4-nitro-11-(4-piperonyl-1-piperazinyl)dibenz[b,f][1,4]oxazepine], the D2/D4 in test [1] was found to be 53.2. For the same compound, the D4 selectivity entry in test [1] (compared with clozapine) is recorded as “better D4 selectivity than clozapine”. Moreover, the Ki in test [2] came to 0.0245 µM.

Turning to `Clc1cc2c(cc1Cl)Nc1ccccc1C(N1CCN(Cc3ccc4c(c3)OCO4)CC1)=N2` [7,8-dichloro-11-(4-piperonyl-1-piperazinyl)-5H-dibenzo[b,e][1,4]diazepine], the D2/D4 in test [1] worked out at 27.4. Also, the D4 selectivity entry in test [1] (compared with clozapine) is reported as “better D4 selectivity than clozapine”; in test [1] (setting [3]), “better D4selectivity than the corresponding 4-methyl piperazine compound”. In test [2], this compound displayed a Ki of 0.061 µM.

Take `Cc1cc2c(cc1C)Nc1ccccc1C(N1CCN(Cc3ccc4c(c3)OCO4)CC1)=N2` [7,8-dimethyl-11-(4-piperonyl)-1-piperazinyl)-5H-dibenzo[b,f][1,4]diazepine]: the D2/D4 in test [1] came to 14.1. Further, the figures for the D4 selectivity entry in test [1] (compared with clozapine) and in test [1] (setting [3]) were “better D4 selectivity than clozapine” and “better D4selectivity than the corresponding 4-methyl piperazine compound”, respectively. The “D4 affinity and selectivity” value in test [2] (setting [3]) is “better D4 affinity and selectivity than the corresponding 4-methyl piperazine compound”. The compound further showed a Ki in test [2] of 0.266 µM.

With `Clc1ccc2c(c1)N=C(N1CCN(Cc3ccc4c(c3)OCO4)CC1)c1ccccc1S2` [8-chloro-11-(4-piperonyl)-1-piperazinyl)dibenzo[b,f][1,4]thiazepine], the D2/D4 in test [1] came to 63. Besides, the values for the D4 selectivity entry in test [1] (compared with clozapine) and in test [1] (setting [3]) were “better D4 selectivity than clozapine” and “better D4selectivity than the corresponding 4-methyl piperazine compound”, respectively. Moreover, the “D4 affinity and selectivity” value in test [2] (setting [3]) was “better D4 affinity and selectivity than the corresponding 4-methyl piperazine compound”. In test [2], the affinity, expressed as Ki, was 0.024 µM.

Turning to `Cc1ccc2c(c1)N=C(N1CCN(Cc3ccc4c(c3)OCO4)CC1)c1ccccc1O2` [8-methyl-11-(4-piperonyl)-1-piperazinyl)dibenz[b,f][1,4]oxazepine], the D2/D4 in test [1] is 9.8. In test [1] (setting [3]), the D4 selectivity entry is listed as “better D4selectivity than the corresponding 4-methyl piperazine compound”. Moreover, the “D4 affinity and selectivity” value in test [2] (setting [3]) was “better D4 affinity and selectivity than the corresponding 4-methyl piperazine compound”. Further, the affinity in test [2] corresponds to a Ki of 0.143 µM.

Consider `c1ccc2c(c1)N=C(N1CCN(Cc3ccc4c(c3)OCO4)CC1)c1ccccc1N2` [11-(4-piperonyl)-1-piperazinyl-5H-dibenzo[b,e][1,4]diazepine], for which the D2/D4 in test [1] was determined as 6. Moreover, the D4 selectivity entry in test [1] (setting [3]) is “better D4selectivity than the corresponding 4-methyl piperazine compound”. For the same compound, the “D4 affinity and selectivity” value in test [2] (setting [3]) was “better D4 affinity and selectivity than the corresponding 4-methyl piperazine compound”. In test [2], this compound registered a Ki of 0.063 µM.

For the origin of these results see patent US5798350A, “Dopamine receptor ligands” (Allelix Biopharmaceuticals, Inc., priority 1996, dated 1998).
